Key:
[1] = test system: DRG-OPC co-cultures; experiment: Axon damage after lysolecithin demyelination in microfluidic chambers, drug applied to neuronal cell body chamber; type: cell-based, mouse; conditions: 15 µM SR-18292 added together with pioglitazone to cell body chamber
Experimental: Before adding lysolecithin to microfluidic chambers, the inventors used an Axio Observer Z1 inverted motorized microscope (Zeiss, Germany), for live imaging to identify the myelinated axonal segments (video 11, online resource). Images of the myelinated axonal segments were saved with x-y coordinates of the stage position. The effect of live imaging on the axons and myelin was determined by imaging microfluidic chamber containing both mKate2 expressing DRGs and eGFP-expressing OPC where imaged at 20x magnification (Plan-Apochromat 0.8 NA Ph 2 M27 objective, Zeiss, Germany) for 30 minutes before returning the microfluidic chambers to the incubator.
The inventors then added lysolecithin for 2 hours before live imaging the previously imaged axonal segments again, using the x-y co-ordinate of the stage position. These live images of axons, pre and post lysolecithin, allowed the assessment of the demyelination of the axonal segments (based on M1-M4-eGFP fluorescence) as well as axonal damage following acute demyelination (based on appearance of mKate2 fluorescence). […] Meanwhile, axons were classed as fragmented when the mKate2 fluorescence was disrupted and not continuous in at least one part of the axon. […] Following exposure to lysolecithin, demyelination was confirmed based on disruption or loss of M1-M4-eGFP fluorescence. […]

[2] = test system: DRG neurons; conditions: 17 hours
Experimental: Complex IV histochemistry was performed as described below and images were obtained using bright field microscopy. The intensity of the complex IV reactive product was assessed using FIJI and densitometry to analyse complex IV activity at a single cell level.

[3] = test system: DRG neurons; experiment: Seahorse analysis of mitochondrial respiration in DRG neurons; conditions: sodium azide 100 µM for 16 hours
Experimental: DRG neuronal cells were cultured on V7 Seahorse 24-well cell culture microplates (Agilent Technologies), in maintenance medium in a 5% CO2 37° C. incubator. […] Plates were incubated for 30 mins at 37° C. (without CO2), before entry into the Seahorse XFe24 Extracellular Flux Analyser (Agilent). Three measurements were taken basally, and three measurements taken after injection of each drug to either inhibit ATP-linked respiration, uncouple respiration or inhibit the respiratory chain. Mitochondrial respiration was calculated by subtracting the first OCR measurement following injection of antimycin/rotenone from the third basal OCR measurement. Normalisation of OCR to relative protein content was achieved following Sulforhodamine B (SRB) staining of all cell wells. Data for each treatment groups was averaged from between 4-5 replicate wells.

[4] = test system: cerebellar slices from Shiverer mice; experiment: Mitochondrial dynamics in dysmyelinated Purkinje cell axons of Shiverer cerebellar slices exposed to lysolecithin; type: cell-based, mouse; conditions: chronically dysmyelinated axons
Experimental: Cerebellar slices were prepared as previously described. Briefly, wild type C57BL/6 and Shiverer mice pups were sacrificed at P10 and cerebellum was placed in ice-cold dissection medium. The sagittal slices were then sectioned into 300 µm thick slices and placed on a membrane insert. Picospritzer III (Parker, US) and a micromanipulator was used to inject mEOS2-Lentivirus (titre 7-8*10^9; aliquots stored at -80° C.) containing 0.025% of Fast-Green (FG, Sigma F7258, UK) in to the Purkinje cell body layer. […]
Live imaging of mitochondria in Purkinje cell axon was performed at DIV14, directly after removing the lysolecithin. […] Newly transported mitochondria, either appearing from the neuronal cell body to the most proximal 20 micron axonal segment or distal axonal mitochondria appearing in the 20 microns long axonal segment of the most distal photoconverted segment, were counted visually and confirmed using the kymograph. […] For each mitochondrion appearing, the direction of movement was noted, as well as the area of the mitochondrion was measured manually, using the measure function in Fiji, when it first appeared in the axon.
Kymographs of the time lapse images were generated by using the ImageJ plugin KymographClear2.0 [40]. Mitochondrial speed of movement was determined by using the Kymotoolbox ImageJ plugin [80]. […]

[5] = test system: DRG axons; experiment: Lysolecithin exposure of unmyelinated DRG cultures (axon damage); type: cell-based, mouse; conditions: 0.005 mg/ml lysolecithin for 2 hours

Cc1ccc(CN(CC(O)COc2cccc3[nH]ccc23)C(C)(C)C)cc1 (stereo not drawn) [PGC1α inhibitor, SR-18292]
effect on the protective effect of pioglitazone on demyelinated axons [1]: significantly diminished

[N-]=[N+]=[N-] [sodium azide]
highest dose which did not impact cell viability and resulted in complex IV inhibition [2]: 100 µM | cell viability [3]: without compromising cell viability

L-α-Lysophosphatidylcholine [lysolecithin]
axonal mitochondrial dynamics of newly transported mitochondria [4]: does not significantly impact | damage to DRG axons in unmyelinated cultures [5]: without damaging the DRG axons
